From patent US20190375786A1, “STABLE PEPTIDES AND METHODS OF USE THEREOF” (Fred Hutchinson Cancer Research Center, priority 2016, published 2019) come the findings set out here.

One data set concerns chymotrypsin. Nature of the data set: SDPR surface display protease resistance, anti-6xHis staining, chymotrypsin. The data set is classed as cell-based. To be noted: HEK-293 cells, up to 40 μg/ml chymotrypsin for 20 minutes. As for the experimental part:
Soluble peptides were exposed to 500 U/mL porcine trypsin and analyzed by HPLC. Protease resistance was also assessed by using SDPR-displaying peptides. The SDPR vector is similar to the a surface display GFP FasL(SDGF) vector, but contains a C-terminal 6×His tag (SEQ ID NO: 180) and all basic or aromatic amino acid residues on the stalk removed. Protease resistance is then tested by incubation of cells displaying peptides with trypsin or chymotrypsin, followed by incubation in 10 mM DTT, and staining with an anti-6×His fluorophore-labeled antibody (“6×His” disclosed as SEQ ID NO: 180). If peptides are uncleaved, they retain the His tag and are stained with by the antibody. A control protease-sensitive knottin peptide (SK) was used as a positive control. Cells displaying peptides were treated with up to 40 μg/ml trypsin or chymotrypsin.
To determine the impact of protease treatment or reducing condition on the function of the peptides, i.e., binding activity, various binding or functional assays can be performed. […] After treatment with the protease and reducing agent, any linearized peptide product or degradation product resulting from reduction and/or proteolysis by treatment with a protease can be detected or analyzed by staining against the 6×His tag (SEQ ID NO: 180). […]

For the next data set, the system named is TEAD protein. Description: Binding of surface-displayed (SDGF) peptide to biotinylated target protein after reducing agent, flow cytometry. The data set is classed as cell-based. Particulars: HEK-293 cells displaying peptide, 20 nM biotinylated target protein. The procedure: Designed or engineered peptides of this disclosure were also tested to evaluate if the peptides' binding activity to their target protein (e.g., TEAD protein) was affected by exposure to reducing conditions. HEK-293T suspension cells were transfected with a surface display GFP FasL(SDGF) vector comprising SEQ ID NO: 39 (SDGF-SEQ ID NO: 39) or SDGF vector comprising SEQ ID NO: 43 (SDGF-SEQ ID NO: 43) construct. Cultures were grown for two days, followed by incubation in 10 mM GSH or 10 mM DTT. Finally, cells were stained with biotinylated-target protein to evaluate the binding activity of a peptide to the target protein. FIG. 15 illustrates the stability of peptides of SEQ ID NO: 39 and SEQ ID NO: 43 after exposure to a reducing agent. Each peptide was expressed on a cell surface and tested for binding to a target protein after cells expressing SDGF-SEQ ID NO: 43 or SEQ ID NO: 39 were exposed to a reducing agent. FIG. 15A illustrates a flow cytometry plot showing binding of HEK-293 suspension cells transfected with SDGF-SEQ ID NO: 39 (GFP) incubated for 5 minutes in PBS, 10 mM DTT, or 10 mM reduced glutathione (GSH) before staining with 20 nM biotinylated target protein and 20 nM AF647-streptavidin. FIG. 15B illustrates a flow cytometry plot showing binding of HEK-293 suspension cells transfected with SDGF-SEQ ID NO: 43 (GFP) incubated for 5 minutes in PBS, 10 mM DTT, or 10 mM reduced glutathione (GSH) before staining with 20 nM biotinylated target protein and 20 nM AF647-streptavidin. FIG. 15C illustrates quantification of the AF647 mean fluorescence intensity (MFI) of cells falling within the “slice” gate shown in FIG. 15A and FIG. 15B. […] In other words, peptides of SEQ ID NO: 39 and SEQ ID NO: 43 were resistant to reduction by GSH.

For the sequence “GSPDEYIERAKECCKKQDIQCCLRIFDESKDPNVMLICLFCW [SEQ ID NO: 43]”, the “resistance of surface-displayed peptide to cleavage by chymotrypsin” value in the data set on chymotrypsin was “partially resistant”. Besides, the “binding to target protein after DTT treatment” value in the data set with TEAD protein (5 minutes in 10 mM DTT) is reported as “no loss in binding”. The “binding to target protein after GSH treatment” value in the data set on TEAD protein (5 minutes in 10 mM GSH) was “no loss in binding”.
